Measured values published in PMC12302229, “Synergy of triazolyl substituents at C1 and C3 of galactose for high-affinity and selective galectin-4C inhibition” (RSC Chemical Biology, 2025).

Key:
galectin-4N = molecular target: T1, galectin-4N (Homo sapiens, UniProt P56470); experiment: competitive fluorescence polarization assay, galectin-4N; type: binding; settings: Kd and SEM from 3–6 single point measurements, read-out: Dissociation constants, Galectin-4N
T1 construct: called “N” for the N-terminal CRD and “C” for the C-terminal
T1 sequence (P56470 19-150 limits assumed): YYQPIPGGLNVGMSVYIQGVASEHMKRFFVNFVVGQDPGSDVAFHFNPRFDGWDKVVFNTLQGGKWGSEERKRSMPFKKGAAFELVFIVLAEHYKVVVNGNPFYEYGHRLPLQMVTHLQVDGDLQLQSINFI
Protocol: (§1) Affinities of 1c–1z for galectin-1, -3, -4C, -4N, -7, -8C, -8N, -9C, and -9N were measured using an established fluorescence polarization assay[57] with reported probes and conditions.[19] […]
(§2) triazol-1-yl]-3’-(3,5-di-methoxybenzamido)-1,1’-sulfanediyl-di-β-D-galactopyranoside) concentration of 20 nM, respectively. Inhibitors were dissolved in dimethylsulfoxide (analytical grade) to a concentration of 20 mM, diluted with PBS to 3–6 different concentrations, and tested in duplicate twice for galectin affinity using a competitive fluorescence polarization assay as earlier described.3 The highest inhibitor concentrations tested were 1 mM due to solubility limitations at higher concentration. Dissociation constants average and SEM were calculated from two to eight single point measurements showing between 20–80% inhibition. […]

galectin-1 = molecular target: T2, galectin-1 (Homo sapiens, UniProt P09382); experiment: competitive fluorescence polarization assay, galectin-1; type: binding; settings: fluorescence polarization; Kd and SEM from 3–6 single point measurements; read-out: Dissociation constants, Galectin-1
T2 construct: made in house
T2 sequence (P09382 whole entry): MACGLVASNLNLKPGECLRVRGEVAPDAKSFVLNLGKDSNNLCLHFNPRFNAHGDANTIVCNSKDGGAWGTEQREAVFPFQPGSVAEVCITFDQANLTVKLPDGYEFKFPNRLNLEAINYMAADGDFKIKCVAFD
Protocol: as §1
(§3) Fluorescence polarization experiments
(§4) Human galectin-11 and galectin-32 were expressed and purified as earlier described. Fluorescence polarization experiments were performed on a PheraStarFS plate reader with software PHERAstar Mars version 2.10 R3 (BMG, Offenburg, Germany). Specific experimental conditions were a galectin-1 concentration of 0.5 µM together with the fluorescent probe (3,3’-dideoxy-3-[4-(fluorescein-5-yl-carbonylaminomethyl)-1H-1,2,3-triazol-1-yl]-3’-(3,5-di-methoxybenzamido)-1,1’-sulfanediyl-di-β-D-galactopyranoside 1 concentration of 20 nM and a galectin-3 concentration of 0.2 µM together with the fluorescent probe (3,3’-dideoxy-3-[4-(fluorescein-5-yl-carbonylaminomethyl)-1H-1,2,3- […]
as §2

galectin-3 = molecular target: T3, galectin-3 (Homo sapiens, UniProt P17931); experiment: competitive fluorescence polarization assay, galectin-3; settings: Kd and SEM from 3–6 single point measurements, > values estimated, no apparent binding at highest concentration, read-out: Dissociation constants, Galectin-3
T3 construct: made in house
T3 sequence (P17931 whole entry): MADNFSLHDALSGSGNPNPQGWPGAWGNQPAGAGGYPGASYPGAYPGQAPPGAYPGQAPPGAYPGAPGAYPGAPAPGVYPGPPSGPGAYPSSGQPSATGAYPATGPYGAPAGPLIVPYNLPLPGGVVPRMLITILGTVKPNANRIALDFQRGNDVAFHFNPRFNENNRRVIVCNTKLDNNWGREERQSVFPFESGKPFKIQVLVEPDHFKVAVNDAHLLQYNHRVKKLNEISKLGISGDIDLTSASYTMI
Protocol: as §1, §3, §4, §2

galectin-4C = molecular target: T4, galectin-4C (Homo sapiens, UniProt P56470); experiment: competitive fluorescence polarization assay, galectin-4C; type: binding; settings: for Kd: fluorescence polarization, x/y cells = only two data points revealed inhibition, both shown, > values estimated, no apparent binding at highest concentration, read-out: Dissociation constants, Galectin-4C
T4 construct: made in house; host or cells: E. coli BL-21 (DE3)
T4 sequence (P56470 185-323): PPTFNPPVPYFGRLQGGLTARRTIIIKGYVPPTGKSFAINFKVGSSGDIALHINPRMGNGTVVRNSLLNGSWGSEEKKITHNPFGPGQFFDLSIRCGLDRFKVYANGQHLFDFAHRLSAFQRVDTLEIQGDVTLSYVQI
Protocol: Affinities of 1c–1z for galectin-1, -3, -4C, -4N, -7, -8C, -8N, -9C, and -9N were measured using an established fluorescence polarization assay[57] with reported probes and conditions.[19]
Recombinant human galectin-4 C-terminal carbohydrate recognition domain was expressed and purified as previously reported.[57,70] Briefly, BL-21 (DE3) E. coli cells containing galectin-4C (amino acid sequence 185–323) was expressed, lysed by sonication and purified by affinity chromatography on a lactosyl-Sepharose column. Galectin-4C protein was eluted using 50 mM β-lactose in PBS, pH 7.4. Galectin-4C was then further gel purified using a Superdex 200/60 column (GE Healthcare) previously equilibrated in PBS, pH 7.4. The peak fractions collected containing galectin-4C were pooled and concentrated to 6.5 mg mL^−1 using an AmiconUltra 3K molecular weight cut-off centrifugal concentrator (Millipore, Billerica, MA, USA) and used directly in crystallisation studies. […]
as §2

Structure (SMILES) | Kd (galectin-4N) | Kd (galectin-1) | Kd (galectin-3) | fold better galectin-4C affinity compared to 1a–b (galectin-4C; effect of adding the C3 phenyltriazolyl) | Kd (galectin-4C) | fold stronger affinity for galectin-4C compared to galectin-1 and galectin-3 (galectin-4C; ratio of Kd) | galectin-4C selectivity over other galectins (galectin-4C; ratio of Kd)
OC[C@H]1O[C@@H](c2cn(-c3ccccn3)nn2)[C@H](O)[C@@H](n2cc(-c3ccccc3)nn2)[C@H]1O [Compound 16b, 1,3-Dideoxy-1-(1-(2-pyridyl)-1H-1,2,3-triazol-4-yl)-3-(4-(phenyl)-1H-1,2,3-triazolyl)-β-D-galactopyranosyl] | 240 ± 54 µM | 180 ± 1 µM | 34 ± 3 µM | ≤ 79 fold | 9.6 ± 2.3 µM | – | –
OC[C@H]1O[C@@H](Cn2cc(-c3ccc(C(F)(F)F)cc3)nn2)[C@H](O)[C@@H](n2cc(-c3ccccc3)nn2)[C@H]1O [Compound 24b, 1-((4-(1-Phenyl-1H-1,2,3-triazol-4-yl)-1,3-dideoxy-β-D-galactopyranosyl)methyl)-4-(4-(trifluoromethyl)phenyl)-1H-1,2,3-triazole] | 760 ± 32 µM | 440 ± 68 µM | 720 ± 78 µM | – | 12 ± 1.7 µM | – | twenty-onefold and up to thirty-sevenfold
OC[C@H]1O[C@@H](Cn2cc(-c3ccccc3)nn2)[C@H](O)[C@@H](n2cc(-c3ccccc3)nn2)[C@H]1O [Compound 24c, 1-((4-(1-Phenyl-1H-1,2,3-triazol-4-yl)-1,3-dideoxy-β-D-galactopyranosyl)methyl)-4-phenyl-1H-1,2,3-triazole] | 290 ± 32 µM | 140 ± 5 µM | 90 ± 13 µM | – | 19 ± 2.9 µM | – | –

These reach a lower Kd (galectin-4N). Values come first.

Kd (galectin-4N) | Kd (galectin-1) | Kd (galectin-3) | fold better galectin-4C affinity compared to 1a–b (galectin-4C; effect of adding the C3 phenyltriazolyl) | Kd (galectin-4C) | fold stronger affinity for galectin-4C compared to galectin-1 and galectin-3 (galectin-4C; ratio of Kd) | Structure (SMILES) | galectin-4C selectivity over other galectins (galectin-4C; ratio of Kd)
130 ± 20 µM | 220 ± 10 µM | 200 ± 32 µM | – | 9.5 ± 1.3 µM | 20 fold | OC[C@H]1O[C@@H](Cn2cc(-c3ccc(F)cc3)nn2)[C@H](O)[C@@H](n2cc(-c3ccccc3)nn2)[C@H]1O [Compound 24a] | twenty-onefold and up to thirty-sevenfold
130 ± 23 µM | 240 ± 5 µM | 91 ± 2 µM | – | 22 ± 2.8 µM | – | OC[C@H]1O[C@@H](Cn2cc(-c3cc(F)c(F)c(F)c3)nn2)[C@H](O)[C@@H](n2cc(-c3ccccc3)nn2)[C@H]1O [Compound 24d] | –
